Laboratory results as given in patent US5405760A, “Process for producing recombinant McrBC endonuclease and cleavage of methylated DNA” (New England Biolabs, Inc., priority 1992, dated 1995).
Where two headings read alike, the source gives them in different places.

Legend:
[1] = biological target: T1, McrBC (Escherichia coli, UniProt P15005); assay: McrBC cleavage of pBR322.AluI with titration of nucleotides; type: biochemical; conditions: for inhibition of McrBC reaction: in the presence of GTP (0.5 mM), analogue 5.0 to 0.04 mM; for support of cleavage of the substrate by nucleotide: nucleotides tested at 1 mM
T1 construct: made in house; host or cells: Escherichia coli BL21(DE3)/pER273 (McrBL) and BL21(DE3)/pER276 (McrC)
T1 sequence (P15005 1-459): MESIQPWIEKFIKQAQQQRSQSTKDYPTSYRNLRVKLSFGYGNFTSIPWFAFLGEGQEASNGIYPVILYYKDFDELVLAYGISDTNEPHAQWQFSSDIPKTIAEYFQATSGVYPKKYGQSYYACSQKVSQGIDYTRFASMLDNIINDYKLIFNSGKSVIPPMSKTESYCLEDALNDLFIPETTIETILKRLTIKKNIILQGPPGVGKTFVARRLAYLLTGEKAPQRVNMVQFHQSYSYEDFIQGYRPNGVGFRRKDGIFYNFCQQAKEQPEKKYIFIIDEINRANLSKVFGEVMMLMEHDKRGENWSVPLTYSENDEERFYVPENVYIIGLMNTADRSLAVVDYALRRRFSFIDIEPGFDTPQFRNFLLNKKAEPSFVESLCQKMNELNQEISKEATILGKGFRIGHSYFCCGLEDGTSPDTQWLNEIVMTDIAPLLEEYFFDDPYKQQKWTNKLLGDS
Method: The optimal buffer composition for both components of McrBC tested was 10 mM Tris-Cl, 10 mM magnesium chloride, 1 mM GTP (pH 7.5 at 25° C.).
McrBC activity depends on the presence of GTP. […] McrBL Fraction IV and McrC Fraction Va (EXAMPLE I), were used, such that each reaction in each series contained 8 pmol McrBL, 8 pmol of McrC (combined activity on the same day of 5 units) and 0.07 pmol of pBR322.AluI in the presence of decreasing concentrations of nucleotides. Mixtures were made up without McrBL and without nucleotide; nucleotide was added to the first tube in the series; the samples were serially diluted in a manner similar to that described in EXAMPLE I and II; and reactions were begun by addition of McrBL and transfer to 37° C.

[2] = test system: McrBC (chromosomal wild-type operon) (Escherichia coli K-12); assay: cell_activity; conditions: methylated by M.HaeII in vivo; in vivo restriction; abolished by McrBS plasmid
[3] = Properties of the McrBC cleavage reaction (pH, ratio of components); type: biochemical; conditions: higher or lower ratios reduce cleavage activity
Text: (a) pH optimum: Activity is detectable when the pH of the reaction is lowered to about 5.8.
Higher or lower ratios reduce cleavage activity.

[4] = pH 7.5, read-out: relative activity

Molecule: Nc1ncnc2c1ncn2[C@@H]1O[C@H](COP(=O)(O)OP(=O)(O)NP(=O)(O)O)[C@@H](O)[C@H]1O [AMP-PNP]
- inhibition of McrBC reaction [1]: did not inhibit McrBC
- inhibition of McrBC at high concentrations ([1]; near 10 mM): partial inhibition

Molecule: Nc1nc2c(ncn2[C@@H]2O[C@H](COP(=O)(O)O)[C@@H](O)[C@H]2O)c(=O)[nH]1 [GMP]
- support of cleavage of the substrate by nucleotide [1]: Neither GDP or GMP supported cleavage

Molecule: Nc1nc2c(ncn2[C@@H]2O[C@H](COP(=O)(O)OP(=O)(O)NP(=O)(O)O)[C@@H](O)[C@H]2O)c(=O)[nH]1 [GMP-PNP]
- inhibition of the GTP-supported reaction ([1]; 5 mM analogue, 0.5 mM GTP): partial inhibition
- activity at 1250 µM ([1]; pH 7.5, 0.5 mM GTP and 1.25 mM GMP-PNP, read-out: relative activity): 50%
- activity at 5000 µM ([1]; pH 7.5, 0.5 mM GTP and 5 mM GMP-PNP, read-out: relative activity): < 10%

Molecule: Nc1nc2c(ncn2[C@@H]2O[C@H](COP(=O)(O)OP(=O)(O)O)[C@@H](O)[C@H]2O)c(=O)[nH]1 [GDP]
- support of cleavage of the substrate by nucleotide [1]: Neither GDP or GMP supported cleavage

Molecule: Nc1nc2c(ncn2[C@@H]2O[C@H](COP(=O)(O)OP(=O)(O)OP(=O)(O)O)[C@@H](O)[C@H]2O)c(=O)[nH]1 [GTP]
- activity at 620 µM ([1]; 0.62 mM GTP, 10 mM Tris-Cl, 10 mM magnesium chloride, pH 7.5, read-out: relative activity): 100%
- support of the reaction by GTP alone ([1]; 2.5 mM GTP): supported the reaction normally
- effect of high levels of GTP on the enzyme ([1]; 5 mM GTP): inhibit the enzyme
- GTP concentration at which cleavage can be detected ([1]; lane h, lowest concentration): 40 nM
- activity at 40 µM ([1]; pH 7.5, 0.04 mM GTP, same buffer, read-out: relative activity): ≤ 10%
- activity at 310 µM ([1]; pH 7.5, 0.31 mM GTP, same buffer, read-out: relative activity): 50%

Molecule: Nc1ncnc2c1ncn2[C@@H]1O[C@H](COP(=O)(O)OP(=O)(O)OP(O)(O)=S)[C@@H](O)[C@H]1O [ATP-gamma-S]
- inhibition of McrBC reaction [1]: did not inhibit the enzyme

Molecule: phage lambda modified by M.HaeII
- activity (fold reduction in plaques) [2]: 33

Molecule: Nc1nc2c(ncn2[C@@H]2O[C@H](COP(=O)(O)OP(=O)(O)OP(O)(O)=S)[C@@H](O)[C@H]2O)c(=O)[nH]1 [GTP-gamma-S]
- relative activity ([1]; 0.5 mM GTP and as little as 0.04 mM GTP-gamma-S): no activity was detectable
- inhibition of McrBC reaction [1]: completely inhibit

Molecule: McrB: large polypeptide product of the mcrB gene, component of McrBC
- Optimal ratio of McrB to McrC [3]: between one and ten molecules of McrB per molecule of McrC

Molecule: Nc1ncnc2c1ncn2[C@@H]1O[C@H](COP(=O)(O)OP(=O)(O)OP(=O)(O)O)[C@@H](O)[C@H]1O [ATP]
- concentration at which inhibition of McrBC activity began ([1]; 0.5 mM GTP (equimolar)): 0.5 mM
- inhibition of McrBC reaction [1]: inhibited the reaction
- activity at 620 µM [1, 4]: 25%
- activity at 1250 µM [1, 4]: < 10%
- activity at 2500 µM [1, 4]: < 1%

B1: McrC: component of McrBC endonuclease, product of the mcrC gene (protein, UniProt P15006 1-348, looked up)
Type IV methyl-directed …: MEQPVIPVRNIYYMLTYAWGYLQEIKQANLEAIPGNNLLDILGYVLNKGVLQLSRRGLELDYNPNTEIIPGIKGRIEFAKTIRGFHLNHGKTVSTFDMLNEDTLANRIIKSTLAILIKHEKLNSTIRDEARSLYRKLPGISTLHLTPQHFSYLNGGKNTRYYKFVISVCKFIVNNSIPGQNKGHYRFYDFERNEKEMSLLYQKFLYEFCRRELTSANTTRSYLKWDASSISDQSLNLLPRMETDITIRSSEKILIVDAKYYKSIFSRRMGTEKFHSQNLYQLMNYLWSLKPENGENIGGLLIYPHVDTAVKHRYKINGFDIGLCTVNLGQEWPCIHQELLDIFDEYLK
- Optimal ratio of McrC to sites [3]: between one and six molecules of McrC per cleavable site
